Results reported in patent US11512111B2, “Yeats inhibitors and methods of use thereof” (The University of Hong Kong, priority 2017, dated 2022).
Residues, ends and D or L forms follow the SMILES beside them. *: point of attachment. Oxazole(5-CO) = O=C(c1cnco1)*

Experiments:
AF9 YEATS domain [1] = molecular target: T1, AF9 YEATS domain (Homo sapiens, UniProt P42568); assay: Photo-cross-linking-based competition assay (photoaffinity probe, click chemistry, in-gel fluorescence); assay type: binding; conditions: for IC50: competition with photoaffinity probe, in-gel fluorescence
T1 construct: His-AF9 (1-138); His (N); made in house; host or cells: E. coli Rosetta
T1 sequence (P42568 1-138): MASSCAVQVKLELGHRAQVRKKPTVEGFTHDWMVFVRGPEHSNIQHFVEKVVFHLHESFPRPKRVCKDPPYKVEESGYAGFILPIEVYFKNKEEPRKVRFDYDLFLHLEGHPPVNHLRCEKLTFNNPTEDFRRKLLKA
Experimental: Mobile phase used were water with 0.1% trifluoroacetic acid (buffer A) and 90% acetonitrile in water with 0.1% trifluoroacetic acid (buffer B). The purity (>95%) and identity of peptides were confirmed by LC-MS. The inhibitory activities of the inhibitors were determined by a photo-cross-linking-based competition assay. […] The reactions were incubated for 1 h at r.t . . . . The reactions were quenched by adding 5 volumes of ice-cold acetone and placed at −20° C. overnight to precipitate proteins. After protein precipitation, samples were centrifuged at 6000×g for 5 min at 4° C. The supernatant was discarded and the pellet was washed with ice-cooled methanol twice and air-dried for 10 min. […] Samples were then resolved by SDS-PAGE. The labeled proteins were visualized by scanning the gel on a Typhoon 9410 variable mode imager (excitation 532 nm, emission filter 580 nm). A photo-cross-linking based method was used in this study to estimate inhibitory activity (FIG. 28). This method requires the use of a photoaffinity probe. The probe (probe 1 (SEQ ID NO:48), see below) is derived from a crotonylated peptide, ligand of the protein, carrying a photo-cross-linker and a terminal alkyne as bioorthogonal. The YEATS domain is incubated and bound to the probe through Kcr-dependent recognition. Upon UV-irradiation, the photo-cross-linker is activated and rapidly cross-linked to the protein, converting the non-covalent protein-probe interaction into a covalent linkage. The probe-labeled protein is subsequently conjugated to an azide-functionalized fluorescence dye (for example, rhodamine-N3, Rho-N3) via Cu(I)-catalyzed azide-alkyne cycloaddition (CuAAC, or “click” chemistry). After SDS-PAGE, the protein can be visualized by in-gel fluorescence scanning. If photo-cross-linking of the YEATS domain with photoaffinity probe is performed in the presence of an inhibitor, which occupies the Kcr binding pocket of the YEATS domain and thus inhibits the protein-probe interaction, the percentage of the YEATS domain in the sample that is labeled by the probe will be reduced. The in-gel fluorescence intensity detected will also be decreased. By varying the concentration of inhibitor added in the sample and quantifying the resulting fluorescence intensities, a competition curve of the inhibitor toward the protein-probe interaction will be obtained, which can be used to estimate the IC50 value. Due to the covalent nature of photo-cross-linking, weak protein-protein interactions can be captured and eventually visualized. The protein concentration used in the assay can be as low as several nanograms per microliter, while the fluorescence signal can still be robustly detected and quantified.

ENL YEATS domain [2] = molecular target: T2, ENL YEATS domain (Homo sapiens, UniProt Q03111); assay: Photo-cross-linking-based competition assay; assay type: binding; conditions: for IC50: competition with photoaffinity probe, in-gel fluorescence
T2 construct: His-SUMO-ENL (1-138); His (N); SUMO (N); made in house; host or cells: E. coli Rosetta
T2 sequence (Q03111 1-138): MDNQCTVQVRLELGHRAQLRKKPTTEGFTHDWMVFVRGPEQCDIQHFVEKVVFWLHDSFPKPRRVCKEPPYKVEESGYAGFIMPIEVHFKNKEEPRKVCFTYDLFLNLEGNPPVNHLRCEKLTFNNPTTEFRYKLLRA

GAS41 YEATS domain = molecular target: T3, GAS41 YEATS domain (Homo sapiens, UniProt O95619); assay: Photo-cross-linking-based competition assay; assay type: binding; conditions: competition with photoaffinity probe, in-gel fluorescence
T3 construct: His-Gas41 (15-159); His (N); made in house; host or cells: E. coli Rosetta
Experimental: (§1) Peptides were synthesized on a Rink-Amide MBHA resin followed by a standard Fmoc-based solid-phase peptide synthesis protocol. After all amino acids were coupled, protecting groups and cleavage of peptides from the resin were done by incubating the resin with a cleavage cocktail containing 95% trifluoroacetic acid, 2.5% triisopropylsilane, 1.5% H2O and, 1% thioanisole for 2 h. Peptides were purified by preparative HPLC with an XBridge Prep OBDTM C18 column (30 mm×250 mm, 10 μm, Waters). Mobile phase used were water with 0.1% trifluoroacetic acid (buffer A) and 90% acetonitrile in water with 0.1% trifluoroacetic acid (buffer B). The purity (>95%) and identity of peptides were confirmed by LC-MS. The inhibitory activities of the inhibitors were determined by a photo-cross-linking-based competition assay.
(§2) The probe 4.1 or 4.2 (2 μM) with indicated concentrations of different inhibitors was incubated with YEATS domain proteins (5 or 20 ng/μL) in binding buffer (50 mM HEPES, 150 mM NaCl, 2 mM MgCl2, 0.1% Tween-20, 20% glycerol, pH 7.5, with or without 50 ng/μL BSA) for 10 min at 4° C. Then, the samples were irradiated at 365 nm using a UV lamp for 20 min in a 96-well plate on ice.
(§3) To the prepared photo-cross-linking samples, 100 μM Rho-N3 (10 mM stock in DMSO) was added, followed by 1 mM TCEP (freshly prepared 50 mM stock in H2O), 100 μM TBTA (10 mM stock in DMSO), and finally the reactions were initiated by the addition of 1 mM CuSO4 (freshly prepared 50 mM stock in H2O). The reactions were incubated for 1 h at r.t . . . . The reactions were quenched by adding 5 volumes of ice-cold acetone and placed at −20° C. overnight to precipitate proteins.
(§4) After protein precipitation, samples were centrifuged at 6000×g for 5 min at 4° C. The supernatant was discarded and the pellet was washed with ice-cooled methanol twice and air-dried for 10 min. The proteins were resuspended in 1×LDS sample loading buffer (Invitrogen) with 50 mM DTT, and heated at 80° C. for 8 min. Samples were then resolved by SDS-PAGE. The labeled proteins were visualized by scanning the gel on a Typhoon 9410 variable mode imager (excitation 532 nm, emission filter 580 nm).
(§5) A photo-cross-linking based method was used in this study to estimate inhibitory activity (FIG. 28). This method requires the use of a photoaffinity probe. The probe (probe 1 (SEQ ID NO:48), see below) is derived from a crotonylated peptide, ligand of the protein, carrying a photo-cross-linker and a terminal alkyne as bioorthogonal.
(§6) The YEATS domain is incubated and bound to the probe through Kcr-dependent recognition. Upon UV-irradiation, the photo-cross-linker is activated and rapidly cross-linked to the protein, converting the non-covalent protein-probe interaction into a covalent linkage. The probe-labeled protein is subsequently conjugated to an azide-functionalized fluorescence dye (for example, rhodamine-N3, Rho-N3) via Cu(I)-catalyzed azide-alkyne cycloaddition (CuAAC, or “click” chemistry). After SDS-PAGE, the protein can be visualized by in-gel fluorescence scanning. If photo-cross-linking of the YEATS domain with photoaffinity probe is performed in the presence of an inhibitor, which occupies the Kcr binding pocket of the YEATS domain and thus inhibits the protein-probe interaction, the percentage of the YEATS domain in the sample that is labeled by the probe will be reduced. The in-gel fluorescence intensity detected will also be decreased. By varying the concentration of inhibitor added in the sample and quantifying the resulting fluorescence intensities, a competition curve of the inhibitor toward the protein-probe interaction will be obtained, which can be used to estimate the IC50 value. Due to the covalent nature of photo-cross-linking, weak protein-protein interactions can be captured and eventually visualized. The protein concentration used in the assay can be as low as several nanograms per microliter, while the fluorescence signal can still be robustly detected and quantified. […]

YEATS2 domain = molecular target: T4, YEATS2 domain (Homo sapiens, UniProt Q9ULM3); assay: Photo-cross-linking-based competition assay; assay type: binding; conditions: competition with photoaffinity probe, in-gel fluorescence
T4 construct: His-SUMO-YEATS2 (201-332); His (N); SUMO (N); made in house; host or cells: E. coli Rosetta
T4 sequence (Q9ULM3 201-332): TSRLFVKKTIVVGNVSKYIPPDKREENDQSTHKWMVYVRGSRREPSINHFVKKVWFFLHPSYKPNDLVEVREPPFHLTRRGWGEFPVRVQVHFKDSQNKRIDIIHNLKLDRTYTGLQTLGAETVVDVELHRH
Experimental: as §1, §2, §3, §4, §5, §6

ENL = molecular target: T5, ENL (Homo sapiens, UniProt Q03111); assay: Cellular thermal shift assay (CETSA) in MOLM-13 (FLAG-ENL) cells; assay type: cell-based; conditions: MOLM13 (FLAG-ENL), 50 μM, 16 hours, anti-FLAG
T5 construct: expressed in transfected cells; host or cells: MOLM-13 (FLAG-ENL) cells
T5 sequence (Q03111 1-559): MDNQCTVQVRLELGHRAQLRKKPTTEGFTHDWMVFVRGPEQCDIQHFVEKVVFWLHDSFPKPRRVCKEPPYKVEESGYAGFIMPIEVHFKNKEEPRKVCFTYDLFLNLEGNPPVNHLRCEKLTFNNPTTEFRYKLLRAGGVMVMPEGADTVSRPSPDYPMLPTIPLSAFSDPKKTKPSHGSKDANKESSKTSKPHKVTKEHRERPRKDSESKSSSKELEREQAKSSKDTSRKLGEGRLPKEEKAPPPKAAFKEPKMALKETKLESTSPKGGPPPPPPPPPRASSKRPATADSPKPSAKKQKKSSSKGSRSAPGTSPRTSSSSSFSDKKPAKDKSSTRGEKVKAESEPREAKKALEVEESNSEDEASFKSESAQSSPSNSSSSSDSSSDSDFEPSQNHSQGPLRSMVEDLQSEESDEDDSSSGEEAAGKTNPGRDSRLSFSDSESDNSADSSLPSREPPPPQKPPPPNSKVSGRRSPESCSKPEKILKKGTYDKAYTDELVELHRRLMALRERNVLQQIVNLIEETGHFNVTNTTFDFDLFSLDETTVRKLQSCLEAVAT
Experimental: We next applied the cellular thermal shift assay (CETSA) to examine if XL-13m was cell permeable and could target ENL in living cells. MOLM-13 (FLAG-ENL) were treated with XL-13m for […] and then heated at different temperature to denature and precipitate proteins. […] Soluble proteins were extracted by freeze-thaw cycle and subjected to western blotting analysis.
MOLM13 (FLAG-ENL) cells were incubated with or without 50 μM compound for 16 hours and then were collected for cellular thermal shift assay (CETSA) as previously reported. Anti-FLAG antibody was used to detect ENL proteins and γ-actin blotting served as negative control.

AF9 YEATS domain [3] = molecular target: T1, AF9 YEATS domain; assay: Isothermal titration calorimetry (ITC); assay type: binding; conditions: ITC
Experimental: (§7) ^1H and ^13C NMR spectra were recorded on Bruker UltraShield 400 or 600 MHz spectrometers and were calibrated using residual undeuterated solvent as an internal reference. Chemical shifts were reported in ppm, and coupling constant J was reported in Hz. Peptides were analyzed by LC-MS with an Agilent 1260 Infinity HPLC system connected to a Thermo Finnigan LCQ DecaXP MS detector. Peptides were purified on a preparative HPLC system with Waters 2535 Quaternary Gradient Module, Waters 515 HPLC pump, Waters SFO System Fluidics Organizer, and Waters 2767 Sample Manager. Photo-cross-linking was performed with an ENF-260C/FE hand-hang UV lamp (Spectroline). In-gel fluorescence scanning was performed using a Typhoon 9410 variable mode imager from GE Healthcare Life Sciences (excitation 532 nm, emission 580 nm). Images of Coomassie blue staining were acquired by MyECL Imager from Thermo Scientific. All images were processed by ImageJ software (National Institutes of Health), and contrast was adjusted appropriately. ITC experiments were performed with a MicroCal iTC200 titration calorimeter (MicroCal). IC50 and dissociation constants were fit with Origin 7.0 software package (OriginLab).
To further validate the reliability of the results obtained from the photo-cross-linking-based competition assay, we performed isothermal titration calorimetry (ITC) to determine the direct binding affinities of the inhibitors toward the AF9 YEATS domain. […] The ITC measurements were in agreement with the IC50 data, indicating the reliability of the results obtained from the photo-cross-linking-based competition assay.

ENL YEATS domain [4] = molecular target: T2, ENL YEATS domain; assay: Isothermal titration calorimetry (ITC); assay type: binding
Experimental: as §7
The compound Cyclic 3 was also tested with AF9 and ENL YEATS domains.

T3 sequence (O95619 15-159): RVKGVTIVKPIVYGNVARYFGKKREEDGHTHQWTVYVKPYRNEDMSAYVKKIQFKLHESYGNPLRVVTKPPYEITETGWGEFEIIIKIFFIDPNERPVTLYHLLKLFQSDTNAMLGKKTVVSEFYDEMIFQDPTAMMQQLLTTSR

IC50 (AF9 YEATS domain [1]) | IC50 (ENL YEATS domain [2]) | activity drop on ENL compared to AF9 (ENL YEATS domain [2]; ratio of IC50 values) | IC50 (GAS41 YEATS domain) | IC50 (YEATS2 domain) | Kd (AF9 YEATS domain [3]) | Kd (ENL YEATS domain [4]) | SMILES | activity on AF9 weaker than on ENL (AF9 YEATS domain [1]; ratio of IC50 values) | thermal shift: targeting of ENL protein in living cells (ENL)
0.26 µM | 1.3 µM | 5 fold | 123 µM | 42.4 µM | – | – | C[C@H](NC(=O)[C@@H](NC(=O)[C@H](CCC(N)=O)NC(=O)OCc1ccccc1)[C@@H](C)O)C(=O)N[C@@H](CCCNC(=N)N)C(=O)N[C@@H](CCCCNC(=O)c1ccco1)C(N)=O [Compound 26] | – | –
0.24 µM | – | – | 14.5 µM | 98.7 µM | – | – | C[C@H](NC(=O)[C@@H](NC(=O)[C@H](CCC(N)=O)NC(=O)OCc1ccccc1)[C@@H](C)O)C(=O)N[C@@H](CCCNC(=N)N)C(=O)N[C@@H](CCCCNC(=O)c1cnco1)C(N)=O [Compound 27] | – | –
– | – | – | – | – | – | – | CC(=O)N[C@@H](C)C(=O)N[C@@H](C)C(=O)N[C@@H](CCCNC(=N)N)C(=O)N[C@@H](CCCCNC(=O)c1cnco1)C(N)=O [Compound 40] (Ac-AARK(Oxazole(5-CO))-NH2) | 6.1 fold | revealed the target of ENL protein
– | 12.9 µM | – | 53.7 µM | 22.7 µM | 0.52 µM | 11.4 µM | C[C@@H]1NC(=O)[C@H]([C@H](C)O)NC(=O)[C@@H](NC(=O)OCc2ccccc2)CCCCNC(=N)NCCC[C@H](C(=O)N[C@@H](CCCCNC(=O)c2cnco2)C(N)=O)NC1=O [Compound 80] | – | –
